From PMC11520566, “Discovery of pyrazole-based analogs as CDK2 inhibitors with apoptotic-inducing activity: design, synthesis and molecular dynamics study” (RSC Advances, 2024)

Columns and labels:
Format in all cases: cell-based, human
T-47D = assay: NCI 60 five dose assay, Breast cancer
CAKI-1 = assay: NCI 60 five dose assay, Renal cancer
ACHN = assay: NCI 60 five dose assay, Renal cancer
[1] = Homo sapiens, read-out: LC50 (the source's name)

SMILES: CC(=NNc1ccc(S(N)(=O)=O)cc1)c1ccc(NN=C2C(=O)NN=C2Nc2ccccc2)cc1 [Compound 4, 4-(2-(1-(4-(2-(5-oxo-3-(phenylamino)-1,5-dihydro-4H-pyrazol-4-ylidene)hydrazinyl)phenyl)ethylidene)hydrazinyl)benzene sulfonamide]
- GI50 (T-47D; Homo sapiens, T47D): 2.22 µM
- CC50 (T-47D; Homo sapiens, T47D, read-out: LC50 (the source's name)): 23.9 µM
- Percent Growth (T-47D; Log10 Concentration -4.0 Molar): -88%
- Percent Growth (T-47D; Log10 Concentration -5.0 Molar): -27%
- Percent Growth (T-47D; Log10 Concentration -6.0 Molar): 91%
- Percent Growth (T-47D; Log10 Concentration -7.0 Molar): 98%
- Percent Growth (T-47D; Log10 Concentration -8.0 Molar): 90%
- GI50 (CAKI-1; Homo sapiens): 12.5 µM
- CC50 (CAKI-1; [1]): 50.1 µM
- Percent Growth (CAKI-1; Log10 Concentration -4.0 Molar): -100%
- Percent Growth (CAKI-1; Log10 Concentration -5.0 Molar): 66%
- Percent Growth (CAKI-1; Log10 Concentration -6.0 Molar): 96%
- Percent Growth (CAKI-1; Log10 Concentration -7.0 Molar): 102%
- Percent Growth (CAKI-1; Log10 Concentration -8.0 Molar): 96%
- GI50 (ACHN; Homo sapiens): 5.9 µM
- CC50 (ACHN; [1]): 43 µM
- Percent Growth (ACHN; Log10 Concentration -4.0 Molar): -100%
- Percent Growth (ACHN; Log10 Concentration -5.0 Molar): 36%
- Percent Growth (ACHN; Log10 Concentration -6.0 Molar): 96%
- Percent Growth (ACHN; Log10 Concentration -7.0 Molar): 104%
- Percent Growth (ACHN; Log10 Concentration -8.0 Molar): 94%
